Data: US6548449B1, “Substituted phenyluracils with herbicidal effect” (Bayer Aktiengesellschaft, priority 1998, dated 2003)

Experiments:
weeds [1] = assay: Post-emergence test, activity against weeds; assay type: in vivo; details: test plants of a height of 5-15 cm sprayed, rated after three weeks vs untreated control
Procedure: (§1) Solvent: 5 parts by weight of acetone
(§2) Emulsifier: 1 part by weight of alkylaryl polyglycol ether
To produce a suitable preparation of active compound, 1 part by weight of active compound is mixed with the stated amount of solvent, the stated amount of emulsifiers is added and the concentrate is diluted with water to the desired concentration.
Test plants of a height of 5-15 cm are sprayed with the preparation of active compound such that the particular amounts of active compound are employed per unit area. The concentration of the spray liquor is chosen so that the particular amounts of active compound desired are applied in 1000 l of water/ha.
(§3) After three weeks, the degree of damage to the plants is rated in % damage in comparison to the development of the untreated control.
(§4) 0%=no effect (like untreated control)

weeds [2] = assay: Pre-emergence test, activity against weeds; assay type: in vivo; details: soil sprayed about 24 hours after sowing, rated after three weeks vs untreated control
Procedure: as §1, §2
(§5) To produce a suitable preparation of active compound, 1 part by weight of active compound is mixed with the stated amount of solvent, the stated amount of emulsifier is added and the concentrate is diluted with water to the desired concentration.
(§6) Seeds of the test plants are sown in normal soil. After about 24 hours, the soil is sprayed with the preparation of active compounds such that the particular amounts of active compound desired are applied per unit area. The concentration of the spray liquor is chosen so that the particular amounts of active compound desired are applied in 1000 l of water/ha.
as §3, §4

[3] = test system: crop plants, such as, for example, barley and cotton; assay: Pre-emergence test, tolerance by crop plants; assay type: in vivo; details: rated after three weeks
Procedure: as §1, §2, §5, §6, §3, §4

| SMILES | melting point [°C] | activity against weeds (degree of damage to the plants) (weeds [1]) | activity against weeds (degree of damage to the plants) (weeds [2]) | tolerance by crop plants [3] |
| --- | --- | --- | --- | --- |
| CCS(=O)(=O)Nc1cc(COc2ccc(-n3c(=O)cc(C(F)(F)F)n(C)c3=O)c(F)c2)ccc1Cl [Example 5, 1-[2-fluoro-4-(4-chloro-3-ethylsulphonylamino-benzyloxy)-phenyl]-3-methyl-4-trifluoromethyl-3,6-dihydro-2,6-dioxo-1(2H)-pyrimidine] | 151 | very strong activity | very strong activity | tolerated well |
| Cn1c(C(F)(F)F)cc(=O)n(-c2ccc(OCc3ccc(Cl)c(N)c3)cc2F)c1=O [Example 4, 1-[2-fluoro-4-(3-amino-4-chloro-benzyloxy)-phenyl]-3-methyl-4-trifluoromethyl-3,6-dihydro-2,6-dioxo-1 (2H)-pyrimidine] | 148 | very strong activity |  |  |

More lines, main results first:

| melting point [°C] | SMILES | activity against weeds (degree of damage to the plants) (weeds [1]) | activity against weeds (degree of damage to the plants) (weeds [2]) | tolerance by crop plants [3] |
| --- | --- | --- | --- | --- |
| 133 | Cn1c(C(F)(F)F)cc(=O)n(-c2ccc(OCc3ccc(Cl)c([N+](=O)[O-])c3)cc2F)c1=O [Example 2, 1-[2-fluoro-4-(4-chloro-3-nitro-benzyloxy)-phenyl]-3-methyl-4-trifluoromethyl-3,6-dihydro-2,6-dioxo-1 (2H)-pyrimidine] | very strong activity |  |  |
| 165 | O=c1cc(C(F)(F)F)[nH]c(=O)n1-c1ccc(OCc2ccc(Cl)c([N+](=O)[O-])c2)cc1F [Example 1, 1-[2-fluoro-4-(4-chloro-3-nitro-benzyloxy)-phenyl]-4-trifluoromethyl-3,6-dihydro-2,6-dioxo-1(2H)-pyrimidine] |  |  |  |
| 185 | Nn1c(C(F)(F)F)cc(=O)n(-c2ccc(OCc3ccc(Cl)c([N+](=O)[O-])c3)cc2F)c1=O [Example 3, 3-amino-1-[2-fluoro-4-(4-chloro-3-nitro-benzyl-oxy)-phenyl]-4-trifluoromethyl-3,6-dihydro-2,6-dioxo-1(2H)-pyrimidine] | very strong activity |  |  |
